Data from PubChem BioAssay AID1996.
In brackets after ≈: the same amount, converted by molar mass.

details: buffer; pH 7.4; 200.0 µM

| SMILES | solubility kinetic [µg/mL] |
| --- | --- |
| Cc1cc(C)c(OCCN2CCCC2)c(Cl)c1 | 27.8 (≈ 110 µM) |
| COc1cccc(CN(C)C(c2ccccc2)c2ccccc2)c1OC | 1.7 (≈ 4.89 µM) |
| O=C(OCC(=O)N1CCc2ccccc2C1)c1ccc(F)cc1Cl | 37.2 (≈ 107 µM) |
| CC(C)c1onc(C(=O)N2CCN(c3ccccc3)CC2)c1[N+](=O)[O-] | 1.9 (≈ 5.52 µM) |
| C=CCn1c(C(C)C)nc2ccccc21.Cl | > 35.5 |
| Cc1cc(Cl)ccc1NC(=O)C1COc2ccccc2O1 (stereo not given) | 18.1 (≈ 59.6 µM) |
| COCCCNc1nc(N)c([N+](=O)[O-])c(NC2CCCCC2)n1 | 2.8 (≈ 8.63 µM) |
| Cn1c(SCC(=O)NC2CCCC2)nnc1-c1ccco1 | > 46 |
| C=COC(=O)c1sc2nc(C)cc(C)c2c1N | 0.5 (≈ 2.01 µM) |
| Nc1ccc(SC(F)(F)F)cc1 | 6 (≈ 31.1 µM) |
| COc1ccc(NC(=O)C2CCCN(c3nc(C)cc(C)n3)C2)cc1 (stereo not given) | 1.4 (≈ 4.11 µM) |
| COC(=O)c1sccc1NC(=O)CSc1ccccc1N | 20.8 (≈ 64.5 µM) |
| Cc1ccc(-n2c(C)nnc2SC(C)C(=O)N2CCCC2)cc1 (stereo not given) | > 49.6 |
| CC(OC(=O)c1ccccc1Oc1ccccc1)C(=O)NC1CC1 (stereo not given) | > 48.8 |
| COc1ccc(C)cc1NC(=O)CCCN1C(=O)CN(C)C1=O | > 47.9 |
| CC(NC(=O)CN1C(=O)c2ccccc2C1=O)c1ccccc1 (stereo not given) | 8.4 (≈ 27.2 µM) |
| CC1CCN(C(=O)CCCC(=O)N2CCC(C)CC2)CC1 | > 44.2 |
| O=C(COC(=O)CCC(=O)c1ccc(Cl)cc1)NCc1ccc(F)cc1 | 6.4 (≈ 16.9 µM) |
| O=C(NC(=O)c1ccccc1)Nc1ccccc1O | 2.1 (≈ 8.19 µM) |
| CCCCc1c(O)c2cccc3c2n(c1=O)CCC3 | 35.2 (≈ 137 µM) |

| SMILES | solubility kinetic [µg/mL] |
| --- | --- |
| CCOc1ccc(Cc2onc3c2C(=O)CC(C)(C)C3)cc1OCC | 32.6 (≈ 94.9 µM) |
| Cn1c(=O)c2c(nc(NN=C3CCCC3)n2C)n(C)c1=O | > 43.5 |
| CCOC(=O)CN1C(=O)C(=O)N(Cc2ccccc2)C1=O | > 43.5 |
| Cc1csc(NC(=O)c2ccncc2)n1 | 17.9 (≈ 81.6 µM) |
| Cc1ccc(S(=O)(=O)N2CCCCC2)cc1NC(=O)CN1C(=O)c2ccccc2S1(=O)=O | 20.7 (≈ 43.3 µM) |
| O=C(Nc1ccccc1N1CCCCC1)c1ccc(Cl)cc1 | 1.5 (≈ 4.76 µM) |
| Cc1ccc(C(=O)N[C@H](C(=O)Nc2ccc(F)cc2)C(C)C)cc1 | 3 (≈ 9.14 µM) |
| CN(CC(=O)Nc1ccc(F)cc1)C(=O)c1ccncc1 | > 43.1 |
| CCC1(c2ccc(-c3ccccc3)cc2)C(=O)NC(=O)NC1=O | 4.6 (≈ 14.9 µM) |
| CC(=O)Nc1c(C(=O)Nc2ccc3c(c2)OCO3)oc2ccccc12 | 3.2 (≈ 9.46 µM) |
| Cc1cnc(C(=O)OCC(=O)N=c2sccn2Cc2ccccc2Cl)cn1 | 55.2 (≈ 137 µM) |
| Cc1ccc(SCC(=O)Nc2cccc(C)c2)cc1 | 0.8 (≈ 2.95 µM) |
| COc1cccc(Nc2c(Nc3cccc(OC)c3)c(=O)c2=O)c1 | < 0.3 |
| CC(C)=Cc1oc2ccc([N+](=O)[O-])cc2c1N1CCOCC1 | < 0.3 |
| Cc1ccc(S(=O)(=O)N2CCN(C(C)C(=O)NCC(C)c3ccccc3)CC2)cc1 (stereo not given) | 58.2 (≈ 135 µM) |
| CCn1cc(S(=O)(=O)NC2CCCCC2)cn1 | > 38.6 |
| CCCc1ccc2oc(C(=O)N3CCC[C@H]3CO)c(C)c2c1 | 41.8 (≈ 139 µM) |
| Cc1ccc(CNC(=O)CN(C)S(=O)(=O)c2ccc(F)cc2)cc1 | 1.8 (≈ 5.14 µM) |
| C=CCNc1nc(Cl)nc(Nc2ccccc2)n1 | 2.2 (≈ 8.41 µM) |
| CC(=O)c1ccc(NC(=S)Nc2cccc(Cl)c2C)cc1 | 40.7 (≈ 128 µM) |

| SMILES | solubility kinetic [µg/mL] |
| --- | --- |
| C=CCc1ccccc1OCC(O)CNC(=O)c1ccccc1C(=O)O (stereo not given) | > 53.3 |
| CC(=O)Nc1cccc(-c2nc3ccccc3o2)c1 | 6.3 (≈ 25 µM) |
| O=C(Nc1cccc(Cl)c1)C1CC1c1ccccc1 (stereo not given) | 3.3 (≈ 12.1 µM) |
| C=CCn1cc(C(=O)OCC)c(=O)c2ccc(F)cc21 | 40.2 (≈ 146 µM) |
| CCCCc1nnc(SCC(=O)NC2CCCCC2)n1C | > 46.6 |
| CCOc1ccc(N2CC(C(=O)Nc3ccncc3)CC2=O)cc1 (stereo not given) | > 48.8 |
| O=C(c1cccnc1)N1CCN(c2ccc3ccccc3n2)CC1 | 39.3 (≈ 123 µM) |
| CC1CCCCN1C(=O)C1COc2ccccc2O1 (stereo not given) | 35.5 (≈ 136 µM) |
| CSc1cccc(NC(=S)Nc2ccc(F)cc2)c1 | 34.5 (≈ 118 µM) |
| Cn1cnc2cc(NCc3ccccc3Cl)ccc21 | 34.7 (≈ 128 µM) |
| O=C(NCCc1ccc(F)cc1)c1coc(=O)c(Br)c1 | 2.9 (≈ 8.53 µM) |
| COc1cccc(CC(=O)OCC(=O)NC2CCCCCC2)c1 | > 47.9 |
| O=c1[nH]cnc2sc3c(c12)CCCCC3 | 19.9 (≈ 90.3 µM) |
| NCCNC[C@@H]1COC2(CCCCCCCCCCC2)O1 | 32.7 (≈ 110 µM) |
| Cl.OC(c1ccc(Cl)cc1)c1nccc2ccccc12 (stereo not given) | 31.1 |
| CC(C)CC(=O)Nc1ccc2c(c1)nc(CCN1CCOCC1)n2C | > 51.7 |
| Cc1ccc(NC(=S)N2CCC(NC(=O)c3ccc(C)cc3)CC2)cc1 | 2.2 (≈ 5.99 µM) |
| CC(=O)Nc1ccc(C(=O)OCC(=O)NCc2ccc3c(c2)OCO3)cc1 | 8.1 (≈ 21.9 µM) |
| C#CCNC(=O)c1cc2sccc2n1C | 30.6 (≈ 140 µM) |
| CCNC(=S)Nn1cnc2ccccc21 | > 33 |
